Measurements as given in US12180187B2, “1-phenyl-5-azinylpyrazolyl-3-oxyalkyl acids and their use for controlling unwanted plant growth” (BAYER AKTIENGESELLSCHAFT, priority 2019, dated 2024).

How the values were obtained:
POLCO [1] = experiment: Pre-emergence action at 320 g/ha against POLCO; type: in vivo, Fallopia convolvulus (Polygonum convolvulus); settings: visual scoring after about 3 weeks vs untreated controls
Procedure, shortened: (§1)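 Percent herbicidal activity was assessed by eye roughly three weeks post-application, comparing with untreated plants. Treatment consisted of applying formulated compound in water plus 0.5% additive to covering soil at 600 l/ha before emergence.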

DIGSA = experiment: Pre-emergence action at 320 g/ha against DIGSA; type: in vivo, Digitaria sanguinalis; settings: visual scoring after about 3 weeks vs untreated controls
Procedure, shortened: as §1

AMARE [2] = experiment: Pre-emergence action at 320 g/ha against AMARE; type: in vivo, Amaranthus retroflexus; settings: visual scoring after about 3 weeks vs untreated controls
Procedure, shortened: as §1

ECHCG = experiment: Pre-emergence action against ECHCG, 1280 g/ha; type: in vivo, Echinochloa crus-galli; settings: visual scoring after about 3 weeks vs untreated controls, 100% = plants have died, 0% = like control plants
Procedure, shortened: (§2)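 Compound applied as WP or EC in aqueous spray (0.5% additive, 600 L/ha) to the surface of sandy loam covering freshly sown seeds. After about 3 weeks under good greenhouse conditions, damage is given as visual percentage, 100% meaning plant death.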

POAAN [3] = experiment: Post-emergence action against POAAN, 1.28 kg/ha; type: in vivo, Poa annua; settings: dosage 1280 g/ha, visual rating about 3 weeks after treatment vs untreated controls
Procedure, shortened: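 Visual rating against untreated plants about 3 weeks after spraying gives % activity, where 0% means like controls and 100% means plants died. Plants were treated post-emergence at the one-leaf stage with compound formulated as wettable powder or emulsion concentrate, applied at 600 L water/ha plus 0.5% additive.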

STEME = experiment: Pre-emergence action against STEME, 1280 g/ha; type: in vivo, Stellaria media; settings: scored visually after about 3 weeks vs untreated controls (100% = plants have died)
Procedure, shortened: as §2

POAAN [4] = experiment: Pre-emergence action against POAAN, 1280 g/ha; type: in vivo, Poa annua; settings: visual scoring after about 3 weeks vs untreated controls, 100% = plants have died, 0% = like control plants
Procedure, shortened: as §2

SETVI [5] = experiment: Pre-emergence action against SETVI, 1280 g/ha; type: in vivo, Setaria viridis; settings: visual scoring after about 3 weeks vs untreated controls, 100% = plants have died, 0% = like control plants
Procedure, shortened: as §2

POLCO [6] = experiment: Post-emergence action at 320 g/ha against POLCO; type: in vivo, Fallopia convolvulus (Polygonum convolvulus); settings: visual rating about 3 weeks after treatment vs untreated controls
Procedure, shortened: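 Visual % activity vs untreated controls (0% = like control, 100% = plants dead), scored ~3 wk after treatment. Plants were grown in sandy loam in a greenhouse and sprayed on green parts at the one-leaf stage (2–3 wk post-sowing). Spray: WP or EC in water, 0.5% additive, 600 l/ha.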

AMARE [7] = experiment: Pre-emergence action against AMARE, 1280 g/ha; type: in vivo, Amaranthus retroflexus; settings: scored visually after about 3 weeks vs untreated controls (100% = plants have died)
Procedure, shortened: as §2

ALOMY = experiment: Pre-emergence action at 320 g/ha against ALOMY; type: in vivo, Alopecurus myosuroides; settings: scored visually after about 3 weeks vs untreated controls (100% = plants have died)
Procedure, shortened: as §1

SETVI [8] = experiment: Pre-emergence action at 320 g/ha against SETVI; type: in vivo, Setaria viridis; settings: visual scoring after about 3 weeks vs untreated controls
Procedure, shortened: as §1

MATIN [9] = experiment: Pre-emergence action against MATIN, 1280 g/ha; type: in vivo, Tripleurospermum inodorum (Matricaria inodora); settings: scored visually after about 3 weeks vs untreated controls (100% = plants have died)
Procedure, shortened: as §2

MATIN [10] = experiment: Pre-emergence action at 320 g/ha against MATIN; type: in vivo, Tripleurospermum inodorum (Matricaria inodora); settings: visual scoring after about 3 weeks vs untreated controls
Procedure, shortened: as §1

COC(=O)C(C)Oc1nn(-c2ccccc2)c(-c2ccc(F)nc2)c1Br (stereo not shown) [VII-014]
Pre-emergence action against POLCO in % (POLCO [1]): 90%
Pre-emergence action against DIGSA in % (DIGSA): 100%
Pre-emergence action against AMARE in % (AMARE [2]): 90%
Pre-emergence action against ECHCG (ECHCG): 90%
Post-emergence action against POAAN (POAAN [3]): 100%
Pre-emergence action against STEME (STEME): 100%
Pre-emergence action against POAAN (POAAN [4]): 100%
Pre-emergence action against SETVI (SETVI [5]): 100%
Post-emergence action against POLCO in % (POLCO [6]): 80%
Pre-emergence action against AMARE (AMARE [7]): 100%
Pre-emergence action at 320 g/ha against ALOMY in % (ALOMY): 100%
Pre-emergence action against SETVI in % (SETVI [8]): 100%
Pre-emergence action against MATIN (MATIN [9]): 90%

CCOC(=O)C(C)Oc1nn(-c2ccccc2F)c(-c2ccc(F)nc2)c1C(F)(F)F (stereo not shown) [VII-066]
Pre-emergence action against POLCO in % (POLCO [1]): 90%
Pre-emergence action against DIGSA in % (DIGSA): 100%
Pre-emergence action against AMARE in % (AMARE [2]): 100%
Pre-emergence action against ECHCG (ECHCG): 100%
Post-emergence action against POAAN (POAAN [3]): 100%
Pre-emergence action against STEME (STEME): 100%
Pre-emergence action against MATIN in % (MATIN [10]): 100%
Pre-emergence action against POAAN (POAAN [4]): 100%
Pre-emergence action against SETVI (SETVI [5]): 100%
Pre-emergence action against AMARE (AMARE [7]): 100%
Pre-emergence action at 320 g/ha against ALOMY in % (ALOMY): 100%
Pre-emergence action against SETVI in % (SETVI [8]): 80%
Pre-emergence action against MATIN (MATIN [9]): 90%

COC(=O)COc1nn(-c2cc(F)ccc2F)c(-c2ccc(F)nc2)c1Br [VII-089]
Pre-emergence action against POLCO in % (POLCO [1]): 100%
Pre-emergence action against DIGSA in % (DIGSA): 100%
Pre-emergence action against AMARE in % (AMARE [2]): 100%
Pre-emergence action against ECHCG (ECHCG): 100%
Post-emergence action against POAAN (POAAN [3]): 100%
Pre-emergence action against STEME (STEME): 90%
Pre-emergence action against MATIN in % (MATIN [10]): 90%
Pre-emergence action against POAAN (POAAN [4]): 100%
Pre-emergence action against SETVI (SETVI [5]): 100%
Pre-emergence action against AMARE (AMARE [7]): 100%
Pre-emergence action at 320 g/ha against ALOMY in % (ALOMY): 100%
Pre-emergence action against SETVI in % (SETVI [8]): 100%
Pre-emergence action against MATIN (MATIN [9]): 100%

O=C(COc1nn(-c2ccccc2F)c(-c2ccc(F)nc2)c1Br)OCC1CCOC1 (stereo not shown) [VII-091]
Pre-emergence action against POLCO in % (POLCO [1]): 100%
Pre-emergence action against DIGSA in % (DIGSA): 100%
Pre-emergence action against AMARE in % (AMARE [2]): 100%
Pre-emergence action against ECHCG (ECHCG): 100%
Post-emergence action against POAAN (POAAN [3]): 100%
Pre-emergence action against STEME (STEME): 100%
Pre-emergence action against MATIN in % (MATIN [10]): 90%
Pre-emergence action against POAAN (POAAN [4]): 100%
Pre-emergence action against SETVI (SETVI [5]): 100%
Pre-emergence action against AMARE (AMARE [7]): 100%
Pre-emergence action at 320 g/ha against ALOMY in % (ALOMY): 100%
Pre-emergence action against SETVI in % (SETVI [8]): 100%
Pre-emergence action against MATIN (MATIN [9]): 100%

O=C(COc1nn(-c2ccccc2F)c(-c2ccc(F)nc2)c1Br)OCC1OCCO1 [VII-103]
Pre-emergence action against POLCO in % (POLCO [1]): 100%
Pre-emergence action against DIGSA in % (DIGSA): 100%
Pre-emergence action against AMARE in % (AMARE [2]): 100%
Pre-emergence action against ECHCG (ECHCG): 100%
Post-emergence action against POAAN (POAAN [3]): 100%
Pre-emergence action against STEME (STEME): 100%
Pre-emergence action against MATIN in % (MATIN [10]): 90%
Pre-emergence action against POAAN (POAAN [4]): 100%
Pre-emergence action against SETVI (SETVI [5]): 100%
Pre-emergence action against AMARE (AMARE [7]): 100%
Pre-emergence action at 320 g/ha against ALOMY in % (ALOMY): 100%
Pre-emergence action against SETVI in % (SETVI [8]): 100%
Pre-emergence action against MATIN (MATIN [9]): 100%

COC(=O)[C@H](C)Oc1nn(-c2cc(F)ccc2F)c(-c2ccc(F)nc2)c1Br [VII-107]
Pre-emergence action against POLCO in % (POLCO [1]): 100%
Pre-emergence action against DIGSA in % (DIGSA): 100%
Pre-emergence action against AMARE in % (AMARE [2]): 100%
Pre-emergence action against ECHCG (ECHCG): 90%
Post-emergence action against POAAN (POAAN [3]): 100%
Pre-emergence action against STEME (STEME): 100%
Pre-emergence action against MATIN in % (MATIN [10]): 90%
Pre-emergence action against POAAN (POAAN [4]): 100%
Pre-emergence action against SETVI (SETVI [5]): 100%
Pre-emergence action against AMARE (AMARE [7]): 100%
Pre-emergence action at 320 g/ha against ALOMY in % (ALOMY): 80%
Pre-emergence action against SETVI in % (SETVI [8]): 100%
Pre-emergence action against MATIN (MATIN [9]): 90%

CCOC(=O)COc1nn(-c2ccccc2F)c(-c2ccc(F)nc2)c1C [VII-117]
Pre-emergence action against POLCO in % (POLCO [1]): 100%
Pre-emergence action against DIGSA in % (DIGSA): 100%
Pre-emergence action against AMARE in % (AMARE [2]): 100%
Pre-emergence action against ECHCG (ECHCG): 100%
Post-emergence action against POAAN (POAAN [3]): 100%
Pre-emergence action against STEME (STEME): 90%
Pre-emergence action against MATIN in % (MATIN [10]): 90%
Pre-emergence action against POAAN (POAAN [4]): 100%
Pre-emergence action against SETVI (SETVI [5]): 100%
Pre-emergence action against AMARE (AMARE [7]): 100%
Pre-emergence action at 320 g/ha against ALOMY in % (ALOMY): 100%
Pre-emergence action against SETVI in % (SETVI [8]): 100%
Pre-emergence action against MATIN (MATIN [9]): 100%

COC(=O)[C@@H](C)Oc1nn(-c2cc(F)ccc2F)c(-c2cncc(F)c2)c1Br [VII-132]
Pre-emergence action against POLCO in % (POLCO [1]): 100%
Pre-emergence action against DIGSA in % (DIGSA): 100%
Pre-emergence action against AMARE in % (AMARE [2]): 100%
Pre-emergence action against ECHCG (ECHCG): 100%
Post-emergence action against POAAN (POAAN [3]): 100%
Pre-emergence action against STEME (STEME): 100%
Pre-emergence action against MATIN in % (MATIN [10]): 90%
Pre-emergence action against POAAN (POAAN [4]): 100%
Pre-emergence action against SETVI (SETVI [5]): 100%
Pre-emergence action against AMARE (AMARE [7]): 100%
Pre-emergence action at 320 g/ha against ALOMY in % (ALOMY): 100%
Pre-emergence action against SETVI in % (SETVI [8]): 100%
Pre-emergence action against MATIN (MATIN [9]): 100%

COC(=O)[C@@H](C)Oc1nn(-c2cc(F)ccc2F)c(-c2cncc(F)c2)c1C#N [VII-147]
Pre-emergence action against POLCO in % (POLCO [1]): 100%
Pre-emergence action against DIGSA in % (DIGSA): 100%
Pre-emergence action against AMARE in % (AMARE [2]): 100%
Pre-emergence action against ECHCG (ECHCG): 100%
Post-emergence action against POAAN (POAAN [3]): 100%
Pre-emergence action against STEME (STEME): 100%
Pre-emergence action against MATIN in % (MATIN [10]): 90%
Pre-emergence action against POAAN (POAAN [4]): 100%
Pre-emergence action against SETVI (SETVI [5]): 100%
Pre-emergence action against AMARE (AMARE [7]): 100%
Pre-emergence action at 320 g/ha against ALOMY in % (ALOMY): 100%
Pre-emergence action against SETVI in % (SETVI [8]): 100%
Pre-emergence action against MATIN (MATIN [9]): 100%

COC(=O)[C@@H](C)Oc1nn(-c2ccccc2F)c(-c2ccnc(F)c2)c1Br [VIII-006]
Pre-emergence action against POLCO in % (POLCO [1]): 90%
Pre-emergence action against DIGSA in % (DIGSA): 100%
Pre-emergence action against AMARE in % (AMARE [2]): 100%
Pre-emergence action against ECHCG (ECHCG): 100%
Post-emergence action against POAAN (POAAN [3]): 100%
Pre-emergence action against STEME (STEME): 100%
Pre-emergence action against MATIN in % (MATIN [10]): 90%
Pre-emergence action against POAAN (POAAN [4]): 100%
Pre-emergence action against SETVI (SETVI [5]): 100%
Pre-emergence action against AMARE (AMARE [7]): 100%
Pre-emergence action at 320 g/ha against ALOMY in % (ALOMY): 100%
Pre-emergence action against SETVI in % (SETVI [8]): 100%
Pre-emergence action against MATIN (MATIN [9]): 100%
